Experimental data: paper PMC3871636 (PLoS ONE, 2013)
Structures can show the parent of a compound that is named as a salt.

Columns and labels:
[1] = molecular target: CYP3A4 (C377/C468 mutant) (Homo sapiens, UniProt P08684, form not given/S18F); assay: Ligand-induced spin shift, absorbance titration; type: binding; settings: human, purified CYP3A4(C377/C468) mutant protein, pH 7.4; read-out: K D or S 50
Procedure: (§1) All absorbance and fluorescence assays (including the time-resolved fluorescence measurements) were performed at a protein concentration ≤1 µM at 25°C with continuous stirring. Absorbance spectra were recorded with an S2000 rapid scanning CCD spectrometer (Ocean Optics). Ligand binding assays were done in 100 mM Na-Hepes buffer, pH 7.4, containing 0.5 mM EDTA.
(§2) Absorbance spectra obtained in titration experiments were analyzed with a principal component analysis (PCA) procedure complemented with least-square approximation of the principal vectors with a combination of the prototypical spectra of the CYP3A4 low-spin, high-spin and Type II-substrate-bound ferric CYP3A4 P450 states as described, [31].
(§3) When fitting the results of titration experiments, where the changes in the monitored signal A S (fraction of the enzyme in the high-spin state, intensity or the lifetime of the donor phosphorescence at a given substrate concentration) were assumed to be proportional to [ES], this equation was complemented with the offset A 0 and the scaling factor A max to yield the following relationship: [drawing 5] (Eq.5)

CYP3A4 (C64/C468 mutant) = CYP3A4 (C64/C468 mutant) (Homo sapiens, UniProt P08684, form not given/S18F); assay: Ligand-induced spin shift, absorbance titration; type: binding; settings: human, purified CYP3A4(C64/C468) mutant protein, pH 7.4; read-out: K D or S 50
Procedure: as §1, §2, §3

[2] = molecular target: T1, double-labeled CYP3A4 C377/C468-DY/ER (Homo sapiens, UniProt P08684, S18F, form not given); assay: Time-resolved LRET (phosphorescence lifetime measurements)
Text: The excitation wavelength was set to 540 nm.

[3] = molecular target: T2, double-labeled CYP3A4 C64/C121-DY/ER (Homo sapiens, UniProt P08684, A121C/C239S/C377S/C468A/C98S/S18F); assay: Steady-state LRET titration (delayed emission); settings: Table S2; protein C64/C121-ER/DY; same ligand concentrations
In short: (§4)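 Protein at ≤1 µM, 25°C, stirred, in 100 mM Na-Hepes pH 7.4 with 0.5 mM EDTA, kept anaerobic with a protocatechuate-3,4-dioxygenase/protocatechuic acid scavenger. Delayed emission (100 µs delay) recorded from 650 to 860 nm at 540 nm excitation, with PCA-resolved donor/acceptor intensities giving LRET efficiency and distances (κ² 0.667, n 1.4). Titration signals fitted to a binding equation with offset and scaling terms.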

[4] = molecular target: T2, double-labeled CYP3A4 C64/C121-DY/ER; assay: Time-resolved LRET (phosphorescence lifetime measurements)
In short: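 Double-labeled CYP3A4 (≤1 µM) in 100 mM Na-Hepes pH 7.4, 0.5 mM EDTA, 25°C, anaerobic via protocatechuate dioxygenase/protocatechuic acid; excitation 540 nm, emission 650–860 nm, 100 µs delay. Bi-exponential average lifetimes give LRET efficiency against ERIA-only labeled protein; distances via Förster equation (κ²=0.667, n=1.4).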

[5] = molecular target: double-labeled CYP3A4 (C64/C468)-ER/DY (Homo sapiens, UniProt P08684, S18F, form not given); assay: Steady-state LRET titration (delayed emission); type: binding
In short: as §4

[6] = molecular target: CYP3A4 (double-labeled (C64/C468)-DY/ER) (Homo sapiens, UniProt P08684, form not given/S18F); assay: Steady-state LRET titration (delayed emission); type: binding; settings: human, purified double-labeled CYP3A4 (C64/C468)-DY/ER protein, pH 7.4; (C64/C468)-DY/ER; LRET titration; read-out: K d, steady-state fluorescence
In short: as §4

[7] = molecular target: T1, double-labeled CYP3A4 C377/C468-DY/ER; assay: Steady-state LRET titration (delayed emission); type: binding; settings: Table S2; protein C377/C468-ER/DY; same ligand concentrations
In short: as §4

[8] = molecular target: double-labeled CYP3A4 (C64/C468)-DY/ER (Homo sapiens, UniProt P08684, S18F, form not given); assay: Steady-state LRET titration (delayed emission); type: binding
In short: as §4

[9] = Table S1, protein (C377/C468)-ER/DY, same ligand concentrations
[10] = Table S2, protein C377/C468-ER/DY, same ligand concentrations
[11] = Table S1, protein (C64/C121)-ER/DY, same ligand concentrations
[12] = Table S2, protein C64/C121-ER/DY, same ligand concentrations
[13] = Table S2, C64/C468-ER/DY, same ligand concentrations
[14] = Table S2, C64/C468-DY/ER, same ligand concentrations

T1 sequence (P08684 13-503 S18F, form open): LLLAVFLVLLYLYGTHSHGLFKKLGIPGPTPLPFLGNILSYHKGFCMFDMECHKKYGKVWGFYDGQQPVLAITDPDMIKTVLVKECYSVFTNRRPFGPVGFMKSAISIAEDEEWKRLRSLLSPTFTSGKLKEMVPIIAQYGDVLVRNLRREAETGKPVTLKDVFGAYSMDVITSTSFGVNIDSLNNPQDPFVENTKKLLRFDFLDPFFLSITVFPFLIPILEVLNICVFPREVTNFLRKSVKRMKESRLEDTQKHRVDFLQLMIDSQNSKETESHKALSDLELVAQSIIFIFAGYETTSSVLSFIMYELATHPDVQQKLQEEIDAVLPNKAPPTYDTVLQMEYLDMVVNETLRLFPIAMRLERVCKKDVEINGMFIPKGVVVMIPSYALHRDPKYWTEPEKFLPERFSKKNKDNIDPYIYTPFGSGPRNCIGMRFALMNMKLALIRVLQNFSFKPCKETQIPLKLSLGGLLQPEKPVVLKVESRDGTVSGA
Sequence of double-labeled CYP3A4 (C64/C468)-DY/ER (P08684 13-503 S18F, form open): as above
Sequence of double-labeled CYP3A4 (C64/C468)-ER/DY (P08684 13-503 S18F, form open): as above
T2 sequence (P08684 with tags, fused parts or gaps S18F/C98S/A121C/C239S/C377S/C468A limits assumed): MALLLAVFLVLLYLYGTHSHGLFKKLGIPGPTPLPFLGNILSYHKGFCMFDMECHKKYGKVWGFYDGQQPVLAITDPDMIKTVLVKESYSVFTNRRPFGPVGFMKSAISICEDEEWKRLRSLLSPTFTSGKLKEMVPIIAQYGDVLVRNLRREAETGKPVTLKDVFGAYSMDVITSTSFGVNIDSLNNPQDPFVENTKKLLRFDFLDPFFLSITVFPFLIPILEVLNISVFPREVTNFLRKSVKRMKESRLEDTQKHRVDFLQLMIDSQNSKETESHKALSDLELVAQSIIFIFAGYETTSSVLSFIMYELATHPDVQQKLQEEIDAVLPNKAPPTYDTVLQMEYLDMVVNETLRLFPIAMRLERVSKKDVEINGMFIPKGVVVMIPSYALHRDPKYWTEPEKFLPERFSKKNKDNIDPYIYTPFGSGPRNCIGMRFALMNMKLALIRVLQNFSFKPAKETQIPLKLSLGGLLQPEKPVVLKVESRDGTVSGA
Sequence of CYP3A4 (C377/C468 mutant) (P08684 13-503 S18F, form open): as the sequence (P08684 13-503 S18F, form open) above
Sequence of CYP3A4 (C64/C468 mutant) (P08684 13-503 S18F, form open): as above
Sequence of CYP3A4 (double-labeled (C64/C468)-DY/ER) (P08684 13-503 S18F, form open): as above

CC(C)C[C@H]1C(=O)N2CCC[C@H]2[C@]2(O)O[C@](NC(=O)[C@@H]3C=C4c5cccc6[nH]c(Br)c(c56)C[C@H]4N(C)C3)(C(C)C)C(=O)N12 [Bromocriptine, Bromocriptine mesylate]
Kd [1]: 960 ± 200 nM | Kd (CYP3A4 (C64/C468 mutant)): 340 ± 100 nM | τ1 (phosphorescence decay time with ligand) ([2]; Table S1, protein (C377/C468)-ER/DY, 1-PB 40 µM, ANF 100 µM, BCT 2.5 µM, cholesterol 100 µM, testosterone 100 µM, bi-exponential fit): 25 ± 9 µs | F1 (fraction of first exponential) [2, 9]: 20 ± 4% | τ2 (phosphorescence decay time with ligand) [2, 9]: 129 ± 6 µs | τav (average phosphorescence lifetime with ligand) [2, 9]: 108 ± 3 µs | R (interprobe distance with ligand), lifetime measurements [2, 10]: 36.8± 0.4 Å | ΔR, lifetime measurements [2, 10]: 0.0 ± 0.4 Å | R (interprobe distance with ligand), steady-state measurements [3]: 43.6 ± 0.9 Å | ΔR, steady-state measurements [3]: 1.0 ± 0.9 Å | increase in the interprobe distance ([4]; C64/C121-DY/ER, stated for both steady-state and lifetime experiments): 1.3 Å | τ1 (phosphorescence decay time with ligand) ([4]; Table S1, protein (C64/C121)-ER/DY, 1-PB 40 µM, ANF 100 µM, BCT 2.5 µM, cholesterol 100 µM, testosterone 100 µM, bi-exponential fit): 75 ± 13 µs | F1 (fraction of first exponential) [4, 11]: 49 ± 5% | τ2 (phosphorescence decay time with ligand) [4, 11]: 242 ± 15 µs | τav (average phosphorescence lifetime with ligand) [4, 11]: 159 ± 2 µs | R (interprobe distance with ligand), lifetime measurements [4, 12]: 36.4 ± 0.1 Å | ΔR, lifetime measurements [4, 12]: 1.3 ± 0.1 Å | ΔR (change in interprobe distance), steady-state fluorescence ([5]; (C64/C468)-ER/DY): 0.5±1.6 Å | R (interprobe distance with ligand), steady-state measurements [5, 13]: 39.6 ± 1.6 Å | ΔR, steady-state measurements [5, 13]: 0.5 ± 1.6 Å | Kd [6]: 700 ± 100 nM | R (interprobe distance with ligand), steady-state measurements [7]: 44.7 ± 0.1 Å | ΔR, steady-state measurements [7]: 0.0 ± 0.1 Å | ΔR (change in interprobe distance), steady-state fluorescence ([8]; (C64/C468)-DY/ER): 0.2±0.2 Å | R (interprobe distance with ligand), steady-state measurements [8, 14]: 35.1 ± 0 Å | ΔR, steady-state measurements [8, 14]: 0.2 ± 0.2 Å
